“Also recorded” adds a separate entry of the source.
Assays:
[1] = system: Act A X1 and X2 variant transcripts in U937 cells; experiment: Induction of Act A variant transcripts in U937 cells, PCR; type: cell-based, human
Description: (§1) Total RNA was isolated using TRIzol Reagent (Thermo-Fisher) following the manufacturers protocol. Five μg of glycogen (Thermo-Fisher AM9510) was added to the aqueous phase prior to the addition of isopropanol to facilitate RNA precipitation. For some experiments, RNA quantification was determined using a Nanodrop spectrophotometer. cDNA was prepared from 2 μg of purified RNA, using oligo dT as primer, supplied with the Verso cDNA synthesis kit (Thermo-Fisher # AB1453A) or SuperScript IV Reverse Transcriptase (Thermo-Fisher #18090010) following the manufactures protocol. All PCR reactions were performed using Act A specific primers and GoTaq Green Master Mix (Promega) following the manufacturers protocols. PCR reactions were optimized by gradient PCR, using an Applied Biosystems Veriti Thermal Cycler. PCR products were size fractionated on 1% agarose gels, the bands were isolated, DNA was extracted from gel slices using Micro Bio-Spin columns (Bio Rad# 7326204) and sequenced. All DNA sequencing was performed by the NAPCore Facility at CHOP.
(§2) U937 (human pro-monocytic) and THP-1 (human monocytic) cell lines were grown in RPMI containing 10% fetal bovine serum in a humidified atmosphere of 5% CO2. Cells were treated with PMA (100 ng/ml; 160 nM) for 4 hr (23) or GM-CSF (1 ng/ml) for 8 hr in RPMI containing 1% fetal bovine serum.

U937 cell surface = experiment: Peptide binding to intact U937 cells, FACS; type: cell-based, human; settings: formalin-fixed U937 cells; for Binding to U937 cell surface: biotinylated peptide complexed with NA-488, 2 hr on ice, FACS (FL1); for Binding to U937 cell surface in presence of heparin competitor: peptide complexed with NA-488, excess soluble heparin, FACS
Description: Fig 7 HBD peptides bind to the cell surface with avidity. A, U937 cells were incubated with peptide complexes consisting of biotinylated peptides pre-incubated with NA-488. Following incubation, the cells were washed, and bound peptide was assessed by FACS analysis. […] In contrast, Act A-X3^259-272 peptide fails to bind. Binding specificity was verified using a previously characterized peptide encompassing the high affinity HBD from BMP4. B, representative FACS plots show binding of Act A- X2^13-37 in the absence (blue line) or presence (red line) of heparin competitor. C, representative FACS plots showing binding of Act A- X2^13-37 (blue line), lack of binding by Act A-X3^259-272 (red line) and background signal generated by U937 cells alone (green line). Statistical Analysis (Student’s t test): NA488 vs ActA X2^13-37, NA488 vs BMP4: ****: P< = 0.0001, **: P< = 0.01.
U937 cells were washed with PBS and fixed with 2% buffered formalin for 20 min on ice. The cells were washed with PBS and blocked by incubation in PBS, 1% BSA for 20 min on ice. Approximately […] cells (100 μl) were incubated with peptide tetramers consisting of biotinylated peptide complexed with NA-488. Following incubation for 2 hr on ice, the cells were washed and analyzed on a BD Accuri Flow Cytometer (FL1 channel), located in the Flow Cytometry Core Laboratory at CHOP.

[2] = Solid-phase binding of biotinylated peptides (NA-HRP tetramers) to HS-coated plates; settings: for Binding to substrate-bound HS: HS-coated 96-well plates, peptide tetramers with NA-HRP, PBST with 1% BSA, 2 hr, room temperature, OPD read at 450 nm; for Binding to HS in presence of heparin competitor: HS-coated plates, pre-incubation of peptide with excess soluble heparin
Description: Fig 6 Peptides corresponding to the novel HBD bind HS with high affinity. 96-well plates were coated with HS and incubated with tetrameric peptide complexes (HBC) for 2 hrs. Plates were washed, and bound peptides were assessed by addition of OPD substrate. A and B, schematic diagram depict the amino acid sequences of Act A- X2^13-37 and Act A- X3^259-272 peptides and their location within the full-length proteins, respectively. C, solid phase binding assays of Act A peptides to HS. […] Inset, double reciprocal plot that yields a Kd of 4 nM (n = 3) for Act A- X2^13-37.
Peptides encompassing the heparin binding domains, contained the putative Cardin-Weintraub (CW) motif and a minimum of 2 flanking amino acids on the N- and C- terminal sides of the domain. Three Glycine residues were added to the N-terminus of each peptide to provide a flexible linker between an N-terminal biotin tag and the peptide itself (See Table 6). Peptides were purified by reverse phase HPLC and peptide mass was confirmed by MALDI-TOF mass spectrometry. All peptides were synthesized and purified by Peptide 2 (Chantilly, VA). Where indicated, biotinylated peptides were oligomerized into tetramers by incubation with NAHRP (each avidin molecule binding 4 biotins ([57]) as described.
Nunc MaxiSorp flat bottom 96 well plates were coated with HS in 50 mM carbonate buffer (pH 9.4) overnight at 4°C as described. All binding assays were carried out in 1 x PBS, 0.1% tween 20 (PBST) containing 1% bovine serum albumin. Plates were incubated with peptides for a minimum of 2 hr at room temperature with gentle shaking. At the termination of the assay, the plates were washed 3 times with PBST and a final rinse with PBS. Plates were developed by addition of HRP substrate O-phenylenediamine dihydrochloride (OPD) in Citrate-Phosphate buffer (25 mM citric acid, 50 mM sodium phosphate, pH 5) and read at 450 nm in a Bio-Tek Synergy HT plate reader.

[3] = system: Act A X1 and X2 variant transcripts in THP1 cells; experiment: Induction of Act A variant transcripts in THP1 cells, PCR; type: cell-based, human; settings: GM-CSF 1 ng/ml for 8 hr
Description: as §1, §2

[4] = system: Act A expression in purified human monocytes; settings: ref [41]; cited from earlier work
Description: It should be noted that the above transcript/protein predictions of variants are based on computational genomic analyses that were conducted initially by the MGC team using ESTs to explore the transcriptome and then subsequently confirmed by whole genome sequencing and bioinformatics. Much of the past and recent extensive literature on Act A has utilized recombinant forms of the X3 variant, but currently there is little information about the expression and structural characteristics of the X1 and X2 variants. Thus, we first asked whether these variants are expressed by myel ...

[5] = rat, in vivo, iv; cited from earlier work
Source text: As pointed out above, past and recent studies on Act A biology and function have made use of the X3 variant or the mature protein but to our knowledge, the X1 or X2 variants have not been tested. For example, Harrington et al. used recombinant Act A mature protein to clarify the structural basis by which Fs inhibits Act A signaling. […] Wang et al. carried out a detailed analysis of mechanisms involved in initiation of Act A biological activity, using the X3 ...

[6] = system: TIEG expression in THP1 cells; experiment: TIEG (KLF10) mRNA induction in THP1 cells, qPCR; type: cell-based, human; settings: 2 hr, rhAct A or conditioned medium of AD293 cells transfected with X2 or X3 constructs
Source text: Fig 4 Expression and secretion of Act A variants. Expression constructs for full length X1, X2 and X3 variants were cloned into pcDNA 3.1 and transfected into AD293 and COS1 cells. A, diagram of Act A expression cassette with His tag on the 3’ end. […] Untransfected cells are shown in lane 2. […] D, immunoblots of conditioned medium samples separated under reducing conditions and probed with anti-His tag antibody. […] The band was undetectable in conditioned medium from cells transfected with the X1 vector (lanes 1, 4 and 9) or un-transfected cells (lanes 7 and 8). Lanes 4–6 are a longer exposure of lanes 1–3. E, THP1 cells were incubated for 2 hrs with conditioned media from AD293 cells that were untransfected (U) or transfected with X2 or X3 constructs. The cells were processed for q-PCR analysis of TIEG expression, an early response gene induced by Act A and TGF-β. […]
To assess biological activity of the expressed Act A variants, THP1 cells were incubated with 3 ml of conditioned medium obtained from cells transfected with each Act A variant for 2 hr, in the absence or presences of an ActA neutralizing antibody (BioLegend # 94746) the cells were pelleted and total RNA was isolated using TRIzol Reagent as described above. Induction of Kruppel-like factor 10 (KLF10, TIEG; accession NM_005655) mRNA, an early response gene induced by Act A and TGF-β was assessed by qPCR.

mutant ALK2 = settings: ref [52]; cited from earlier work
Source text: In the musculoskeletal research field, interest in Act A biology has been re-invigorated by recent evidence of its pathogenic roles in the pediatric congenital disorder Fibrodysplasia Ossificans Progressiva (FOP). FOP is characterized by episodic formation of extraskeletal cartilage and bone tissue–a process collectively termed heterotopic ossification (HO)—at multiple sites, eventually involving much of the body. HO is preceded by local inflammation and over time, the accumulated ectopic tissue causes multiple health problems and impediments—including skeletal deformities, chron ...

[7] = PMA 100 ng/ml (160 nM) for 4 hr, semi-quantitative PCR

Q: Which “Expression of Act A X1 variant transcript in U937 cells” value [1, 7] does the source give for CCCCCCCCCCCCCC(=O)O[C@@H]1[C@@H](C)[C@@]2(O)[C@@H](C=C(CO)C[C@]3(O)C(=O)C(C)=C[C@@H]23)[C@@H]2C(C)(C)[C@]12OC(C)=O [PMA, Phorbol 12-myristate 13-acetate, reference compound] here?
A: The value was “undetectable”.

Q: What about the “Expression of Act A X2 variant transcript in U937 cells” value [1, 7] of the same molecule?
A: The value was “stimulated expression of transcripts encoding the X2 variant in U937 cells; also recorded: induced expression of Act A-X2”.

Q: For [B]-GGGGKKKKKEEEGEGKKK [X3^259-272], which “Binding to U937 cell surface” value (U937 cell surface) is on record?
A: The value was “failed to interact with the cells; also recorded: failed to interact with substrate-bound HS or the cell surface”.

Q: And the “Binding to U937 cell surface” value (U937 cell surface; listed as Act A-X3^259-272)?
A: The value was “fails to bind”.

Q: What about the “Binding to substrate-bound HS” value [2] of the same molecule?
A: Its value is “failed to interact with HS at any concentration tested; also recorded: failed to interact with substrate-bound HS”.

Q: What about the “Binding to substrate-bound HS” value ([2]; listed as Act A-X3^259-272) of the same molecule?
A: Its value is “displays minimal binding”.

Q: For “[B]-GGGLKRRRKKKTPKKKIKKSTHTKKPAR [X2^13-37, biotinylated synthetic peptide encompassing the novel HBD, identical in X1 and X2]”, which “Binding to U937 cell surface” value (U937 cell surface) is on record?
A: The value was “readily and efficiently interacted with the cell surface”.

Q: What about the “Binding to U937 cell surface” value (U937 cell surface; listed as Act A- X2^13-37) of the same molecule?
A: Its value is “readily binds to the cell surface”.

Q: And the “Binding to U937 cell surface in presence of heparin competitor” value (U937 cell surface)?
A: Its value is “binding was blocked by pre-treatment with heparin”.

Q: What about the “Binding to U937 cell surface in presence of heparin competitor” value (U937 cell surface; listed as Act A- X2^13-37) of the same molecule?
A: Its value is “its interaction is blocked by soluble heparin competitor”.

Q: And the “Binding to substrate-bound HS” value [2]?
A: The value was “interacted with HS with high affinity”.

Q: And the “Binding to substrate-bound HS” value ([2]; listed as Act A- X2^13-37)?
A: Its value is “binds HS with high affinity”.

Q: What about the “Binding to HS in presence of heparin competitor” value [2] of the same molecule?
A: Its value is “binding was blocked by pre-incubation of the peptide with excess heparin”.

Q: What about the “Binding to HS in presence of heparin competitor” value ([2]; listed as Act A- X2^13-37) of the same molecule?
A: The value was “its binding is blocked by addition of soluble heparin”.

Q: Which results are given for “granulocyte macrophage-colony stimulating factor [GM-CSF]”?
A: Expression of Act A X2 variant transcript in THP1 cells [3]: upregulated the X2 variant in both cell lines; also recorded: induced expression of Act A-X2; Expression of Act A X1 variant transcript in U937 cells ([1]; GM-CSF 1 ng/ml for 8 hr, PCR): only stimulated expression of the X1 variant in U937 cells; also recorded: induced expression of both Act A-X2 and -X1; Expression of Act A X2 variant transcript in U937 cells ([1]; GM-CSF 1 ng/ml for 8 hr, PCR): upregulated the X2 variant in both cell lines; also recorded: induced expression of both Act A-X2 and -X1; Induction of Act A expression in purified human monocytes [4]: induces strong expression of Act A in purified human monocytes

Q: With “mature protein: mature Act A protein (cited studies)” as the molecule, how does the “Circulating half-life (t1/2 fast)” value [5] read?
A: Its value is 5.5 min.

B1: rhAct A: commercially available recombinant human Act A (protein, UniProt P08476 311-426, looked up)
Inhibin beta A chain: GLECDGKVNICCKKQFFVSFKDIGWNDWIIAPSGYHANYCEGECPSHIAGTSGSSLSFHSTVINHYRMRGHSPFANLKSCCVPTKLRPMSMLYYDDGQNIIKKDIQNMIVEECGCS
modifications: Inhibin beta A chain
Q: Which results are given for B1?
A: Induction of TIEG expression (words) [6]: TIEG was rapidly upregulated; Induction of TIEG expression (words) ([6]; listed as rhActA): up-regulated

B2: activin A (protein, UniProt P08476 311-426, looked up)
Inhibin beta A chain: GLECDGKVNICCKKQFFVSFKDIGWNDWIIAPSGYHANYCEGECPSHIAGTSGSSLSFHSTVINHYRMRGHSPFANLKSCCVPTKLRPMSMLYYDDGQNIIKKDIQNMIVEECGCS
modifications: Inhibin beta A chain
Q: With B2 as the molecule, how does the “pSMAD1/5/8 signaling through mutant ALK2” value (mutant ALK2) read?
A: The value was “elicits pSMAD1/5/8 signaling”.
